The values that follow come from ChEMBL document CHEMBL1201862, “PubChem BioAssay data set” (2004).

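Growth conditions: 96-well plates. Treatment: test compound, 48 hours, 5 concentrations. Analysis: linear interpolation between bracketing concentrations; unreached endpoints set to highest concentration. The concentration for 50% growth inhibition is given as GI50.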 The source made the active and inactive calls. Cut-off read from the data, not from the text of the source: active = GI50 up to about 1.1 µM and inactive = higher.

Assay in all cases: DTP human tumour cell line panel, 48 h
For assay [1], the system named is Malme-3M.
Assay [2] concerns U-251.
Assay [3] concerns OVCAR-8.
For assay [4], the system named is CCRF-CEM.
The subject of assay [5] is UACC-62.
Assay [6] concerns OVCAR-5.
For assay [7], the system named is HOP-92.
In assay [8] the test system is SNB-19.
In assay [9] the test system is HOP-62.
Assay [10] deals with SF-539.
The subject of assay [11] is NCI-H23.
Assay [12] relates to OVCAR-3.
Assay [13] deals with UO-31.
Assay [14] relates to SK-MEL-2.
The test system of assay [15] is HCC 2998.
Assay [16] deals with HT-29.
The subject of assay [17] is A549.
In assay [18] the test system is RPMI-8226.
For assay [19], the system named is HL-60.

Take `Cc1ccc2cc3cccc(C(=O)NCCN(C)C)c3nc2c1`: the GI50 in assay [1] is 1.06 µM (active); in assay [2] it was 1.66 µM (inactive); in [3], 0.631 µM (active); in assay [4], 0.679 µM (active); in [5] it was 1.37 µM (inactive); in assay [6], 1.47 µM (inactive). Moreover, the GI50 in assay [7] was 0.376 µM (active); in [8], 0.925 µM (active); in assay [9] it was 0.923 µM (active); in assay [10] it was 1.38 µM (inactive); in assay [11], 1.25 µM (inactive); in assay [12], 1.36 µM (inactive). Further, the GI50 was 0.839 µM (active) in [13]; 1.87 µM (inactive) in [14]; 1.49 µM (inactive) in assay [15]; 0.449 µM (active) in assay [16]; 0.644 µM (active) in assay [17]; 0.807 µM (active) in assay [18]. In addition, in assay [19], the GI50 is 0.565 µM (active).
For `C=CCC(O[Si](C)(C)C(C)(C)C)c1cc(O[Si](C)(C)C(C)(C)C)ccc1OC` (stereo unspecified), the GI50 in assay [1] is > 100 µM (inactive); in [2], > 71.6 µM (inactive); in assay [3], > 81.3 µM (inactive); in [4] it was > 100 µM (inactive); in [5] it was > 81.3 µM (inactive); in assay [6], > 100 µM (inactive). For the same compound, the GI50 in assay [7] was 35.4 µM (inactive); in assay [8] it was > 62.2 µM (inactive); in assay [9], > 100 µM (inactive); in [10] it was 99.3 µM (inactive); in assay [11], > 100 µM (inactive); in [12], > 54.6 µM (inactive). The GI50 in assay [13] was > 82 µM (inactive); in assay [14], > 75.5 µM (inactive); in assay [15], > 100 µM (inactive); in assay [16], > 100 µM (inactive); in [17], > 64.1 µM (inactive); in [18] it was > 100 µM (inactive). For the same compound, the GI50 in assay [19] was > 100 µM (inactive).
In the case of `CN(C)CCNC(=O)c1cc(Cl)cc2ccc(-c3ccccc3)nc12`, the GI50 in assay [1] is 3.63 µM (inactive); in assay [2], 4.32 µM (inactive); in assay [3], 2.92 µM (inactive); in assay [4], 1.49 µM (inactive); in assay [5], 2.45 µM (inactive); in [6] it was 4.84 µM (inactive). The GI50 in assay [7] was 2.82 µM (inactive); in assay [8], 5.04 µM (inactive); in [9] it was 3.13 µM (inactive); in assay [10] it was 3.09 µM (inactive); in assay [11], 3.96 µM (inactive); in assay [12] it was 3.74 µM (inactive). For the same compound, the GI50 is 1.91 µM (inactive) in [13]; 4.85 µM (inactive) in [14]; 3.54 µM (inactive) in assay [15]; 2.22 µM (inactive) in [16]; 2.87 µM (inactive) in [17]; 1.85 µM (inactive) in assay [18]. In assay [19], the GI50 was 2.05 µM (inactive).
As to `C=CCc1cccc(/C=N\N/C(N)=N/O)c1O`, the GI50 was 9.2 µM (inactive) in assay [1]; 4.51 µM (inactive) in [2]; 3.89 µM (inactive) in assay [3]; 2.07 µM (inactive) in assay [4]; 2.64 µM (inactive) in assay [5]; 5.02 µM (inactive) in assay [6]. In addition, the GI50 was 6.56 µM (inactive) in assay [7]; 11.5 µM (inactive) in assay [8]; 2.28 µM (inactive) in assay [9]; 2.64 µM (inactive) in [10]; 3.22 µM (inactive) in assay [11]; 2.26 µM (inactive) in assay [12]. The GI50 in assay [13] was 1.45 µM (inactive); in [14], 6.3 µM (inactive); in [15] it was 3.21 µM (inactive); in assay [16] it was 6.59 µM (inactive); in assay [17] it was 3.61 µM (inactive); in [18], 2.22 µM (inactive). The GI50 in assay [19] was 2.14 µM (inactive).
